Measured values reported in patent US9963442B2, “Pyridones as herbicides” (E I DU PONT DE NEMOURS AND COMPANY, priority 2014, dated 2018).

Tests used:
Assay type in all cases: in vivo
[1] = system: galium (catchweed bedstraw, Galium aparine); assay: Test A postemergence application; settings: approx. 10 days
Text: (§1) Seeds of plant species selected from barnyardgrass (Echinochloa crus-galli), kochia (Kochia scoparia), ragweed (common ragweed, Ambrosia elatior), Italian ryegrass (Lolium multiflorum), giant foxtail (Setaria faberii), and pigweed (Amaranthus retroflexus) were planted into a blend of loam soil and sand and treated preemergence with a directed soil spray using test chemicals formulated in a non-phytotoxic solvent mixture which included a surfactant. At the same time, plants selected from these weed species and also wheat (Triticum aestivum), corn (Zea mays), blackgrass (Alopecurus myosuroides), and galium (catchweed bedstraw, Galium aparine) were planted in pots containing the same blend of loam soil and sand and treated with postemergence applications of test chemicals formulated in the same manner. Plants ranged in height from 2 to 10 cm and were in the one- to two-leaf stage for the postemergence treatment. Treated plants and untreated controls were maintained in a greenhouse for approximately 10 days, after which time all treated plants were compared to untreated controls and visually evaluated for injury. Plant response ratings, summarized in Table A, are based on a 0 to 100 scale where 0 is no effect and 100 is complete control. A dash (-) response means no test result.

kochia (Kochia scoparia) [2] = assay: Test A postemergence application; settings: approx. 10 days
Text: as §1

[3] = system: giant foxtail (Setaria faberii); assay: Test A postemergence application; settings: approx. 10 days
Text: as §1

[4] = system: pigweed (Amaranthus retroflexus); assay: Test A postemergence application; settings: approx. 10 days
Text: as §1

corn (Zea mays) = assay: Test A postemergence application; settings: approx. 10 days
Text: as §1

[5] = system: wheat (Triticum aestivum); assay: Test A postemergence application; settings: approx. 10 days
Text: as §1

[6] = system: barnyardgrass (Echinochloa crus-galli); assay: Test A postemergence application; settings: approx. 10 days
Text: as §1

[7] = system: blackgrass (Alopecurus myosuroides); assay: Test A postemergence application; settings: approx. 10 days
Text: as §1

[8] = system: ragweed (common ragweed, Ambrosia elatior); assay: Test A postemergence application; settings: approx. 10 days
Text: as §1

[9] = system: Italian ryegrass (Lolium multiflorum); assay: Test A postemergence application; settings: approx. 10 days
Text: as §1

kochia (Kochia scoparia) [10] = assay: Test A preemergence, directed soil spray; settings: approx. 10 days
Text: as §1

[11] = system: giant foxtail (Setaria faberii); assay: Test A preemergence, directed soil spray; settings: approx. 10 days
Text: as §1

[12] = system: pigweed (Amaranthus retroflexus); assay: Test A preemergence, directed soil spray; settings: approx. 10 days
Text: as §1

[13] = system: barnyardgrass (Echinochloa crus-galli); assay: Test A preemergence, directed soil spray; settings: approx. 10 days
Text: as §1

[14] = system: ragweed (common ragweed, Ambrosia elatior); assay: Test A preemergence, directed soil spray; settings: approx. 10 days
Text: as §1

[15] = system: Italian ryegrass (Lolium multiflorum); assay: Test A preemergence, directed soil spray; settings: approx. 10 days
Text: as §1

[16] = system: sedge, umbrella (small-flower umbrella sedge, Cyperus difformis); assay: Test B flooded paddy test; design: key: 0 = no effect, 100 = complete control; settings: Flood, 250 g ai/ha applied to paddy water at 2-leaf stage; visually evaluated after 13 to 15 days; scale 0 (no effect) to 100 (complete control)
Experimental: (§2) Plant species in the flooded paddy test selected from rice (Oryza sativa), sedge, umbrella (small-flower umbrella sedge, Cyperus difformis), ducksalad (Heteranthera limosa), and barnyardgrass (Echinochloa crus-galli) were grown to the 2-leaf stage for testing. At time of treatment, test pots were flooded to 3 cm above the soil surface, treated by application of test compounds directly to the paddy water, and then maintained at that water depth for the duration of the test. Treated plants and controls were maintained in a greenhouse for 13 to 15 days, after which time all species were compared to controls and visually evaluated. Plant response ratings, summarized in Table B, are based on a scale of 0 to 100 where 0 is no effect and 100 is complete control. A dash (-) response means no test result.

rice (Oryza sativa) = assay: Test B flooded paddy test; design: key: 0 = no effect, 100 = complete control; settings: Flood, 250 g ai/ha applied to paddy water at 2-leaf stage; visually evaluated after 13 to 15 days; scale 0 (no effect) to 100 (complete control)
Experimental: as §2

[17] = system: ducksalad (Heteranthera limosa); assay: Test B flooded paddy test; design: key: 0 = no effect, 100 = complete control; settings: Flood, 250 g ai/ha applied to paddy water at 2-leaf stage; visually evaluated after 13 to 15 days; scale 0 (no effect) to 100 (complete control)
Experimental: as §2

[18] = system: barnyardgrass (Echinochloa crus-galli); assay: Test B flooded paddy test; design: key: 0 = no effect, 100 = complete control; settings: Flood, 250 g ai/ha applied to paddy water at 2-leaf stage; visually evaluated after 13 to 15 days; scale 0 (no effect) to 100 (complete control)
Experimental: as §2

O=c1cccc(Oc2ncc(Cl)cn2)n1-c1cccc(OC(F)(F)F)c1 [Compound 3, 6-[(5-chloro-2-pyrimidinyl)oxy]-1-[3-(trifluoromethoxy)phenyl]-2(1H)-pyridinone]
Plant response rating (0 to 100 scale, 0 no effect, 100 complete control), Galium ([1]; 1000 g ai/ha): 100 | Plant response rating (0 to 100 scale, 0 no effect, 100 complete control), Kochia (kochia (Kochia scoparia) [2]; 1000 g ai/ha): 90 | Plant response rating (0 to 100 scale, 0 no effect, 100 complete control), Foxtail, Giant ([3]; 1000 g ai/ha): 100 | Plant response rating (0 to 100 scale, 0 no effect, 100 complete control), Pigweed ([4]; 1000 g ai/ha): 90 | Plant response rating (0 to 100 scale, 0 no effect, 100 complete control), Corn (corn (Zea mays); 1000 g ai/ha): 20 | Plant response rating (0 to 100 scale, 0 no effect, 100 complete control), Wheat ([5]; 1000 g ai/ha): 30 | Plant response rating (0 to 100 scale, 0 no effect, 100 complete control), Barnyardgrass ([6]; 1000 g ai/ha): 70 | Plant response rating (0 to 100 scale, 0 no effect, 100 complete control), Blackgrass ([7]; 1000 g ai/ha): 40 | Plant response rating (0 to 100 scale, 0 no effect, 100 complete control), Ragweed ([8]; 1000 g ai/ha): 30 | Plant response rating (0 to 100 scale, 0 no effect, 100 complete control), Ryegrass, Italian ([9]; 1000 g ai/ha): 30 | Plant response rating (0 to 100 scale, 0 no effect, 100 complete control), Kochia (kochia (Kochia scoparia) [10]; 1000 g ai/ha): 40 | Plant response rating (0 to 100 scale, 0 no effect, 100 complete control), Foxtail, Giant ([11]; 1000 g ai/ha): 100 | Plant response rating (0 to 100 scale, 0 no effect, 100 complete control), Pigweed ([12]; 1000 g ai/ha): 70 | Plant response rating (0 to 100 scale, 0 no effect, 100 complete control), Barnyardgrass ([13]; 1000 g ai/ha): 80 | Plant response rating (0 to 100 scale, 0 no effect, 100 complete control), Ragweed ([14]; 1000 g ai/ha): 20 | Plant response rating (0 to 100 scale, 0 no effect, 100 complete control), Ryegrass, Italian ([15]; 1000 g ai/ha): 50 | Plant response rating, Sedge, Umbrella [16]: 0 | Plant response rating, Rice (rice (Oryza sativa)): 0 | Plant response rating, Ducksalad [17]: 0 | Plant response rating, Barnyardgrass [18]: 0

O=c1cccc(Oc2ncc(Cl)cn2)n1-c1ncc(F)cn1 [Compound 4]
Plant response rating (0 to 100 scale, 0 no effect, 100 complete control), Galium ([1]; 31 g ai/ha): 30 | Plant response rating (0 to 100 scale, 0 no effect, 100 complete control), Galium ([1]; 125 g ai/ha): 50 | Plant response rating (0 to 100 scale, 0 no effect, 100 complete control), Kochia (kochia (Kochia scoparia) [2]; 31 g ai/ha): 40 | Plant response rating (0 to 100 scale, 0 no effect, 100 complete control), Kochia (kochia (Kochia scoparia) [2]; 125 g ai/ha): 80 | Plant response rating (0 to 100 scale, 0 no effect, 100 complete control), Foxtail, Giant ([3]; 31 g ai/ha): 0 | Plant response rating (0 to 100 scale, 0 no effect, 100 complete control), Foxtail, Giant ([3]; 125 g ai/ha): 0 | Plant response rating (0 to 100 scale, 0 no effect, 100 complete control), Pigweed ([4]; 31 g ai/ha): 50 | Plant response rating (0 to 100 scale, 0 no effect, 100 complete control), Pigweed ([4]; 125 g ai/ha): 70 | Plant response rating (0 to 100 scale, 0 no effect, 100 complete control), Corn (corn (Zea mays); 31 g ai/ha): 0 | Plant response rating (0 to 100 scale, 0 no effect, 100 complete control), Corn (corn (Zea mays); 125 g ai/ha): 10 | Plant response rating (0 to 100 scale, 0 no effect, 100 complete control), Wheat ([5]; 31 g ai/ha): 0 | Plant response rating (0 to 100 scale, 0 no effect, 100 complete control), Wheat ([5]; 125 g ai/ha): 0 | Plant response rating (0 to 100 scale, 0 no effect, 100 complete control), Barnyardgrass ([6]; 31 g ai/ha): 0 | Plant response rating (0 to 100 scale, 0 no effect, 100 complete control), Barnyardgrass ([6]; 125 g ai/ha): 0 | Plant response rating (0 to 100 scale, 0 no effect, 100 complete control), Blackgrass ([7]; 31 g ai/ha): 20 | Plant response rating (0 to 100 scale, 0 no effect, 100 complete control), Blackgrass ([7]; 125 g ai/ha): 20 | Plant response rating (0 to 100 scale, 0 no effect, 100 complete control), Ragweed ([8]; 31 g ai/ha): 10 | Plant response rating (0 to 100 scale, 0 no effect, 100 complete control), Ragweed ([8]; 125 g ai/ha): 20 | Plant response rating (0 to 100 scale, 0 no effect, 100 complete control), Ryegrass, Italian ([9]; 31 g ai/ha): 0 | Plant response rating (0 to 100 scale, 0 no effect, 100 complete control), Ryegrass, Italian ([9]; 125 g ai/ha): 0 | Plant response rating (0 to 100 scale, 0 no effect, 100 complete control), Kochia (kochia (Kochia scoparia) [10]; 31 g ai/ha): 0 | Plant response rating (0 to 100 scale, 0 no effect, 100 complete control), Kochia (kochia (Kochia scoparia) [10]; 125 g ai/ha): 70 | Plant response rating (0 to 100 scale, 0 no effect, 100 complete control), Foxtail, Giant ([11]; 31 g ai/ha): 0 | Plant response rating (0 to 100 scale, 0 no effect, 100 complete control), Foxtail, Giant ([11]; 125 g ai/ha): 20 | Plant response rating (0 to 100 scale, 0 no effect, 100 complete control), Pigweed ([12]; 31 g ai/ha): 70 | Plant response rating (0 to 100 scale, 0 no effect, 100 complete control), Pigweed ([12]; 125 g ai/ha): 70 | Plant response rating (0 to 100 scale, 0 no effect, 100 complete control), Barnyardgrass ([13]; 31 g ai/ha): 0 | Plant response rating (0 to 100 scale, 0 no effect, 100 complete control), Barnyardgrass ([13]; 125 g ai/ha): 0 | Plant response rating (0 to 100 scale, 0 no effect, 100 complete control), Ragweed ([14]; 31 g ai/ha): 0 | Plant response rating (0 to 100 scale, 0 no effect, 100 complete control), Ragweed ([14]; 125 g ai/ha): 0 | Plant response rating (0 to 100 scale, 0 no effect, 100 complete control), Ryegrass, Italian ([15]; 31 g ai/ha): 0 | Plant response rating (0 to 100 scale, 0 no effect, 100 complete control), Ryegrass, Italian ([15]; 125 g ai/ha): 0 | Plant response rating, Sedge, Umbrella [16]: 0 | Plant response rating, Rice (rice (Oryza sativa)): 0 | Plant response rating, Ducksalad [17]: 0 | Plant response rating, Barnyardgrass [18]: 0
